Here are results for seven compounds from ChEMBL document CHEMBL1136663, “Structure-activity relationships studies of the anti-angiogenic activities of linomide” (Bioorg Med Chem Lett, 2003).

One assay has as its system PC-3. Kind of assay: Antiproliferative activity against PC-3 prostate cancer cells. The format is functional, cell-based. Conditions: Homo sapiens.
A further assay is filed under the species Gallus gallus. Kind of assay: Effective concentration for inhibiting blood vessel formation in the CAM (Chicken chorioallantoic membrane) angiogenesis assay. It is filed as functional.
Another assay deals with HUVEC. Kind of assay: Inhibitory concentration against Human umbilical vein endothelial cell (HUVEC) proliferation. It is filed as functional, cell-based.

The structures appear in SMILES notation.

In general, IC50 refers to the midpoint of a concentration-inhibition curve. A lower IC50 goes with greater potency. Take `CN(C(=O)c1cc2ccccc2n(C)c1=O)c1ccccc1`: the IC50 with PC-3 was over 100 µM. The compound also showed an ED50 in the assay listed under Gallus gallus of over 100 µg embryo-1.

For the compound `O=C(Nc1ccccc1)c1c(O)nc2ccccc2c1O`, the IC50 in the assay with HUVEC is 4 µM; with PC-3 it was over 100 µM. In the assay listed under Gallus gallus, the ED50 was 0.87 µg embryo-1.

In the assay on PC-3, `O=C(Nc1ccccc1)c1cc2ccccc2nc1O` returned an IC50 of over 100 µM. In addition, the ED50 in the assay filed under Gallus gallus is over 100 µg embryo-1.

As to `CN(C(=O)c1c(O)c2ccccc2n(C)c1=O)c1ccccc1` [ROQUINIMEX], the IC50 in the assay with HUVEC was 14 µM; in the assay on PC-3, over 100 µM. This compound also gave an ED50 in the assay filed under Gallus gallus of 60.1 µg embryo-1.

Regarding `CN(C(=O)c1c(O)nc2ccccc2c1O)c1ccccc1`, the IC50 is 6.55 µM in the assay on HUVEC and over 100 µM in the assay on PC-3. Also, the ED50 in the assay filed under Gallus gallus worked out at 7.5 µg embryo-1.

Regarding `CN(C)C(=O)c1c(O)c2ccccc2n(C)c1=O`, the IC50 in the assay on HUVEC was 16.5 µM; in the assay with PC-3, over 100 µM. The compound further registered an ED50 in the assay filed under Gallus gallus of 8.5 µg embryo-1.

Take `Cn1c(=O)c(C(=O)Nc2ccccc2)c(O)c2ccccc21`: the IC50 in the assay on HUVEC is 7.2 µM; with PC-3, over 100 µM. The ED50 in the assay listed under Gallus gallus was found to be 18 µg embryo-1.
